According to ChEMBL document CHEMBL1127843, “2-(3,4-Dichlorophenyl)-N-methyl-N-[(1S)-1-(3-isothiocyanatophenyl)-2-(1-pyrrolidinyl)ethyl]acetamide: an opioid receptor affinity label that produces selective and long-lasting kappa antagonism in mice” (J Med Chem, 1994):

System: Mus musculus
Test: Compound was evaluated for […] antagonist activity towards Mouse vas deferens(MVD)
Format: functional

## CN(C(=O)Cc1ccc(Cl)c(Cl)c1)[C@H](CN1CCCC1)c1cccc(N=C=S)c1
  IC50: 11.1 nM
